The results in this text go back to BindingDB's records for doi:10.1016/S0960-894X(02)00564-4 (Universita Degli Studi Di Firenze, 2002).

This assay addresses T1, Collagenase ColG (Hathewaya histolytica, UniProt Q9X721).
T1 sequence (Q9X721 whole entry): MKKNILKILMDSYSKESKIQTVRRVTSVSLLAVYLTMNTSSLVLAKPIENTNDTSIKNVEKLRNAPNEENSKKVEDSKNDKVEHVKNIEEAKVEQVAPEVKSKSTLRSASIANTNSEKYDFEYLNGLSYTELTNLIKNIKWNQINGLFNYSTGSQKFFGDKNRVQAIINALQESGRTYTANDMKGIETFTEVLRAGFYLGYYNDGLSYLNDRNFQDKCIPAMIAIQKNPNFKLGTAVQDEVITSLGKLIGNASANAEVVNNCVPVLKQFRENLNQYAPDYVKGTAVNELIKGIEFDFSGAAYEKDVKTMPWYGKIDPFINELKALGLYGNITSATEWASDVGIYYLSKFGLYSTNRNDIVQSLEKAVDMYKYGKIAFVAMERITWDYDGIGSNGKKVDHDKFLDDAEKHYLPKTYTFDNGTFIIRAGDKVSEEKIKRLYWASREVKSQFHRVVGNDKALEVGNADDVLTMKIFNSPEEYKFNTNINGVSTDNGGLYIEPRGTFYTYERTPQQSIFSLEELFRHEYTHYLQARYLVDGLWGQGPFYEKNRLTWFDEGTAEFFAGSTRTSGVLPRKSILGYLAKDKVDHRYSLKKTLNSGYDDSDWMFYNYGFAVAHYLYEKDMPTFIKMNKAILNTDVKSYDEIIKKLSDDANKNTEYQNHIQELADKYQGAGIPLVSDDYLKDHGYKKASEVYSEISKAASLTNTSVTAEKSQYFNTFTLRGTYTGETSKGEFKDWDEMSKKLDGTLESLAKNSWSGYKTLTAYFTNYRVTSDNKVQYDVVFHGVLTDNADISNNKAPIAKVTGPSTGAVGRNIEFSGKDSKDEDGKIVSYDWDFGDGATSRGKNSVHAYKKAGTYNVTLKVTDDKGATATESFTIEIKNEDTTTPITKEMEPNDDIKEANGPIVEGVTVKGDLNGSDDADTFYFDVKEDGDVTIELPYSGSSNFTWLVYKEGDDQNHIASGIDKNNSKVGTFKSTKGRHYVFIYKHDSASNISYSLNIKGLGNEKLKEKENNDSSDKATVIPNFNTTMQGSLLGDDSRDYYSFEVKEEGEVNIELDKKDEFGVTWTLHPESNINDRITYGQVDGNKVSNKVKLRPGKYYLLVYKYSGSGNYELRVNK
Description: MMP Enzyme Inhibition Assay. The protocol:
Initial rates for the hydrolysis of the thioester substrate were used for assessing the catalytic activity and inhibition of the MMPs by the spectrophotometric method. The change of absorbance at 405 nm was monitored. The inhibition constant Ki was then determined by using Easson-Stedman plots and a linear regression program.

As usually defined, the Ki is the equilibrium dissociation constant of an inhibitor or competing ligand from its target. Read a low Ki as a stronger hold on the target.

The compound `CC(NC(=O)C(Cc1ccccc1)NC(=O)NS(=O)(=O)c1ccccc1)C(=O)Nc1nnc(S)s1` (stereo unspecified) [2-{[(benzenesulfonyl)carbamoyl]amino}-3-phenyl-N-{1-[(5-sulfanyl-1,3,4-thiadiazol-2-yl)carbamoyl]ethyl}propanamide] came in with a Ki of 3 µM.

`CC(=O)Nc1ccc(S(=O)(=O)NC(Cc2ccccc2)C(=O)NC(C)C(=O)Nc2nnc(S)s2)cc1` (stereo unspecified) [2-[(4-acetamidobenzene)sulfonamido]-3-phenyl-N-{1-[(5-sulfanyl-1,3,4-thiadiazol-2-yl)carbamoyl]ethyl}propanamide] displayed a Ki of 16 µM.

The compound `CC(NC(=O)C(Cc1ccccc1)NC(=O)NS(=O)(=O)c1ccc(F)cc1)C(=O)Nc1nnc(S)s1` (stereo unspecified) [2-({[(4-fluorobenzene)sulfonyl]carbamoyl}amino)-3-phenyl-N-{1-[(5-sulfanyl-1,3,4-thiadiazol-2-yl)carbamoyl]ethyl}propanamide] came in with a Ki of 0.2 µM.

In turn, `Cc1ccc(S(=O)(=O)NC(Cc2ccccc2)C(=O)NC(C)C(=O)Nc2nnc(S)s2)cc1` (stereo unspecified) [2-[(4-methylbenzene)sulfonamido]-3-phenyl-N-{1-[(5-sulfanyl-1,3,4-thiadiazol-2-yl)carbamoyl]ethyl}propanamide] displayed a Ki of 15 µM.

The compound `CC(NC(=O)C(Cc1ccccc1)NS(=O)(=O)c1cccs1)C(=O)Nc1nnc(S)s1` (stereo unspecified) [3-phenyl-N-{1-[(5-sulfanyl-1,3,4-thiadiazol-2-yl)carbamoyl]ethyl}-2-(thiophene-2-sulfonamido)propanamide] displayed a Ki of 9 µM.

The compound `CC(NC(=O)C(Cc1ccccc1)NS(=O)(=O)c1ccc([N+](=O)[O-])cc1)C(=O)Nc1nnc(S)s1` (stereo unspecified) [2-[(4-nitrobenzene)sulfonamido]-3-phenyl-N-{1-[(5-sulfanyl-1,3,4-thiadiazol-2-yl)carbamoyl]ethyl}propanamide] came in with a Ki of 13 µM.

Take `CC(NC(=O)C(Cc1ccccc1)NS(=O)(=O)c1cc(Cl)ccc1Cl)C(=O)Nc1nnc(S)s1` (stereo unspecified) [2-[(2,5-dichlorobenzene)sulfonamido]-3-phenyl-N-{1-[(5-sulfanyl-1,3,4-thiadiazol-2-yl)carbamoyl]ethyl}propanamide]: affinity was put at a Ki of 15 µM.

As for `COc1ccc(S(=O)(=O)NC(Cc2ccccc2)C(=O)NC(C)C(=O)Nc2nnc(S)s2)cc1` (stereo unspecified) [2-[(4-methoxybenzene)sulfonamido]-3-phenyl-N-{1-[(5-sulfanyl-1,3,4-thiadiazol-2-yl)carbamoyl]ethyl}propanamide], the Ki came to 14 µM.

Consider `CC(NC(=O)C(Cc1ccccc1)NS(=O)(=O)CC12CCC(CC1=O)C2(C)C)C(=O)Nc1nnc(S)s1` (stereo unspecified) [2-[({7,7-dimethyl-2-oxobicyclo[2.2.1]heptan-1-yl}methane)sulfonamido]-3-phenyl-N-{1-[(5-sulfanyl-1,3,4-thiadiazol-2-yl)carbamoyl]ethyl}propanamide], for which the affinity, expressed as Ki, was 25 µM.

For the compound `Cc1ccc(S(=O)(=O)NC(=O)NC(Cc2ccccc2)C(=O)NC(C)C(=O)Nc2nnc(S)s2)cc1` (stereo unspecified) [2-({[(4-methylbenzene)sulfonyl]carbamoyl}amino)-3-phenyl-N-{1-[(5-sulfanyl-1,3,4-thiadiazol-2-yl)carbamoyl]ethyl}propanamide], the Ki came to 4 µM.

On to `CC(NC(=O)C(Cc1ccccc1)NS(=O)(=O)c1ccc2ccccc2c1)C(=O)Nc1nnc(S)s1` (stereo unspecified) [2-(naphthalene-2-sulfonamido)-3-phenyl-N-{1-[(5-sulfanyl-1,3,4-thiadiazol-2-yl)carbamoyl]ethyl}propanamide], for which affinity was put at a Ki of 40 µM.

In the case of `CC(NC(=O)C(Cc1ccccc1)NS(=O)(=O)c1ccc(I)cc1)C(=O)Nc1nnc(S)s1` (stereo unspecified) [2-[(4-iodobenzene)sulfonamido]-3-phenyl-N-{1-[(5-sulfanyl-1,3,4-thiadiazol-2-yl)carbamoyl]ethyl}propanamide], the affinity, expressed as Ki, was 14 µM.

Take `CC(NC(=O)C(Cc1ccccc1)NS(=O)(=O)c1c(F)c(F)c(F)c(F)c1F)C(=O)Nc1nnc(S)s1` (stereo unspecified) [2-[(2,3,4,5,6-pentafluorobenzene)sulfonamido]-3-phenyl-N-{1-[(5-sulfanyl-1,3,4-thiadiazol-2-yl)carbamoyl]ethyl}propanamide]: affinity was put at a Ki of 5 µM.

Compound `CC(NC(=O)C(Cc1ccccc1)NS(=O)(=O)c1cccc2cccnc12)C(=O)Nc1nnc(S)s1` (stereo unspecified) [3-phenyl-2-(quinoline-8-sulfonamido)-N-{1-[(5-sulfanyl-1,3,4-thiadiazol-2-yl)carbamoyl]ethyl}propanamide] yielded a Ki of 36 µM. This Ki is about 7.2-fold higher than that of the compound before.

As for `CC(NC(=O)C(Cc1ccccc1)NS(=O)(=O)c1cccc(C(F)(F)F)c1)C(=O)Nc1nnc(S)s1` (stereo unspecified) [3-phenyl-N-{1-[(5-sulfanyl-1,3,4-thiadiazol-2-yl)carbamoyl]ethyl}-2-{[3-(trifluoromethyl)benzene]sulfonamido}propanamide], the affinity, expressed as Ki, was 9 µM.

`CC(NC(=O)C(Cc1ccccc1)NC(=O)NS(=O)(=O)c1ccc(Cl)cc1)C(=O)Nc1nnc(S)s1` (stereo unspecified) [2-({[(4-chlorobenzene)sulfonyl]carbamoyl}amino)-3-phenyl-N-{1-[(5-sulfanyl-1,3,4-thiadiazol-2-yl)carbamoyl]ethyl}propanamide]: affinity was put at a Ki of 0.3 µM.

`CC(NC(=O)C(Cc1ccccc1)NS(=O)(=O)c1ccc(F)cc1)C(=O)Nc1nnc(S)s1` (stereo unspecified) [2-[(4-fluorobenzene)sulfonamido]-3-phenyl-N-{1-[(5-sulfanyl-1,3,4-thiadiazol-2-yl)carbamoyl]ethyl}propanamide] registered a Ki of 21 µM.

The compound `CC(NC(=O)C(Cc1ccccc1)NS(=O)(=O)c1ccc(Br)cc1)C(=O)Nc1nnc(S)s1` (stereo unspecified) [2-[(4-bromobenzene)sulfonamido]-3-phenyl-N-{1-[(5-sulfanyl-1,3,4-thiadiazol-2-yl)carbamoyl]ethyl}propanamide] gave a Ki of 16 µM.

Compound `Cc1cc(C)c(S(=O)(=O)NC(Cc2ccccc2)C(=O)NC(C)C(=O)Nc2nnc(S)s2)c(C)c1` (stereo unspecified) [3-phenyl-N-{1-[(5-sulfanyl-1,3,4-thiadiazol-2-yl)carbamoyl]ethyl}-2-[(2,4,6-trimethylbenzene)sulfonamido]propanamide] displayed a Ki of 17 µM.

Compound `CC(NC(=O)C(Cc1ccccc1)NS(=O)(=O)Cc1ccccc1)C(=O)Nc1nnc(S)s1` (stereo unspecified) [3-phenyl-2-(phenylmethane)sulfonamido-N-{1-[(5-sulfanyl-1,3,4-thiadiazol-2-yl)carbamoyl]ethyl}propanamide] displayed a Ki of 19 µM.

The compound `CC(NC(=O)C(Cc1ccccc1)NS(=O)(=O)c1cccc2c(N(C)C)cccc12)C(=O)Nc1nnc(S)s1` (stereo unspecified) [2-{[5-(dimethylamino)naphthalene-1-]sulfonamido}-3-phenyl-N-{1-[(5-sulfanyl-1,3,4-thiadiazol-2-yl)carbamoyl]ethyl}propanamide] displayed a Ki of 43 µM.
